# Several values for one entry are separate records, joined by “and”; a condition that tells them apart may be missing. Equal entries are not always repeated. Where two headings read alike, the source gives them in different places.
# Assays:
# [1] = molecular target: T1, MDM2 (Homo sapiens, UniProt Q00987); assay: Inhibition test of MDM2-P53 (GST-MDM2, Biotin-P53, Anti-GST-Tb, SA-XL665); type: binding
# T1 construct: made in house
# In short: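 Compounds, serially diluted 5-fold (twelve concentrations), were shaken for 90 min at 25° C with a mix of GST-MDM2 (4 nM final), Biotin-P53, anti-GST-Tb and SA-XL665. Buffer: 1×PBS, 0.1% BSA, 5 mM DTT, 1 mM AEBSF; signal read on a microplate reader.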
# [2] = Pharmacokinetics in ICR mice after intravenous and intragastric administration; type: in vivo; conditions: for F*: PO 5 mg/kg vs IV 2 mg/kg, mean; for Vd: read-out: Vz; for MRT last: read-out: MRT(0-t); for MRT inf: read-out: MRT(0-∞)
# In short: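 Compounds were dissolved at 0.5 mg/ml in DMSO/PEG400/HP-β-CD saline vehicle and given to overnight-fasted male ICR mice, 2 mg/kg by vein or 5 mg/kg by gavage (n=3 each). Plasma was then protein-precipitated, assayed by LC-MS/MS, and PK parameters including oral bioavailability were derived.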
# [3] = system: human osteosarcoma cell line SJSA-1; assay: Inhibition of proliferation of human osteosarcoma cell line SJSA-1 (DAPI staining, In Cell Analyzer); conditions: Homo sapiens, SJSA-1, 72 h, read-out: IC50 (nM), inhibitory activity on proliferation of human osteosarcoma cell line SJSA-1, SJSA-1, incubated 72 h
# [4] = ICR mice, IV 2 mg/kg, individual animals 301-303, 2 mg/kg
# [5] = ICR mice, PO 5 mg/kg, individual animals 401-403, 5 mg/kg
# [6] = male, ICR, mouse, plasma, iv, 2 mg/kg, ICR mice, IV 2 mg/kg, individual animals 301-303, read-out: Cmax
# [7] = male, ICR, mouse, plasma, iv, 2 mg/kg, ICR mice, IV 2 mg/kg, individual animals 301-303, read-out: Tmax
# [8] = male, ICR, mouse, plasma, iv, 2 mg/kg, ICR mice, IV 2 mg/kg, individual animals 301-303
# [9] = male, ICR, mouse, plasma, iv, 2 mg/kg, ICR mice, IV 2 mg/kg, mean of 3 animals
# [10] = male, ICR, mouse, plasma, iv, 2 mg/kg, ICR mice, IV 2 mg/kg, mean of 3 animals, read-out: AUC(0-t)
# [11] = male, ICR, mouse, plasma, iv, 2 mg/kg, ICR mice, IV 2 mg/kg, mean of 3 animals, read-out: Cmax
# [12] = male, ICR, mouse, plasma, iv, 2 mg/kg, ICR mice, IV 2 mg/kg, mean of 3 animals, read-out: Tmax
# [13] = male, ICR, mouse, plasma, iv, 2 mg/kg, ICR mice, IV 2 mg/kg, mean of 3 animals, read-out: t1/2 (converted)
# [14] = male, ICR, mouse, plasma, po, 5 mg/kg, ICR mice, PO 5 mg/kg, individual animals 401-403
# [15] = male, ICR, mouse, plasma, po, 5 mg/kg, ICR mice, PO 5 mg/kg, individual animals 401-403, read-out: AUC(0-t)
# [16] = male, ICR, mouse, plasma, po, 5 mg/kg, ICR mice, PO 5 mg/kg, individual animals 401-403, read-out: Cmax
# [17] = male, ICR, mouse, plasma, po, 5 mg/kg, ICR mice, PO 5 mg/kg, individual animals 401-403, read-out: Tmax
# [18] = male, ICR, mouse, plasma, po, 5 mg/kg, ICR mice, PO 5 mg/kg, individual animals 401-403, read-out: t1/2 (converted)
# [19] = male, ICR, mouse, plasma, po, 5 mg/kg, ICR mice, PO 5 mg/kg, mean of 3 animals
# [20] = male, ICR, mouse, plasma, po, 5 mg/kg, ICR mice, PO 5 mg/kg, mean of 3 animals, read-out: AUC(0-t)
# [21] = male, ICR, mouse, plasma, po, 5 mg/kg, ICR mice, PO 5 mg/kg, mean of 3 animals, read-out: Cmax
# [22] = male, ICR, mouse, plasma, po, 5 mg/kg, ICR mice, PO 5 mg/kg, mean of 3 animals, read-out: Tmax
# [23] = male, ICR, mouse, plasma, po, 5 mg/kg, ICR mice, PO 5 mg/kg, mean of 3 animals, read-out: t1/2 (converted)
# [24] = male, ICR, mouse, plasma, po, 5 mg/kg, oral intragastric administration 5 mg/kg, read-out: AUC0-t
# T1 sequence (Q00987 whole entry): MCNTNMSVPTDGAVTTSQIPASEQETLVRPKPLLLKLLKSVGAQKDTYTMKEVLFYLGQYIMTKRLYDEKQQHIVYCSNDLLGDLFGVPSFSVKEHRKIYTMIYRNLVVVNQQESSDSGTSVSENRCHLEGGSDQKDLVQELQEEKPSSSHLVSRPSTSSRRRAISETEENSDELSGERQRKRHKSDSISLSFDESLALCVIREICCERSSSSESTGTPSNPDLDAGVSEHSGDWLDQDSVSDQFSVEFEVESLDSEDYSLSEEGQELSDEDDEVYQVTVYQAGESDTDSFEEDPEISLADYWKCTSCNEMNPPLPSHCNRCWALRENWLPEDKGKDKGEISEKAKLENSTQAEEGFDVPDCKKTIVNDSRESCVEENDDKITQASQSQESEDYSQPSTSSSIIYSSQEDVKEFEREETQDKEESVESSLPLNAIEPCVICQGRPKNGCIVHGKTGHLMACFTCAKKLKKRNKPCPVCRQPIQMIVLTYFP
compound,measurement,setting,value
"COc1nc(OCCF)ncc1-c1nc2c(n1C(C)C)[C@@]1(C(=O)Nc3cc(Cl)ccc31)N(c1cc(Cl)ccc1C)C2=O [Example S-140, (S)-6-chloro-5′-(5-chloro-2-methylphenyl)-2′-(2-(2-fluoroethoxy)-4-methoxypyrimidin-5-yl)-3′-isopropyl-3′H-spiro[dihydroindole-3,4′-pyrrolo[3,4-d]imidazole]-2,6′(5′H)-dione]",IC50,[1],1.06 nM
same,AUC(0-t),[2]; [4],9144.58 ng·h/mL and 19456.40 ng·h/mL and 11628.12 ng·h/mL
same,CL,[2]; [4],3.37 mL/min/kg and 1.67 mL/min/kg and 2.26 mL/min/kg
same,Cmax,[2]; [4],6627.89 ng/mL and 5215.16 ng/mL
same,MRT(0-t),[2]; [4],1.58 h and 3.73 h and 1.94 h
same,Vz,[2]; [4],0.61 L/kg and 0.52 L/kg
same,t1/2,[2]; [4],1.70 h and 4.19 h and 2.67 h
same,F*,[2]; ICR mice,72.11%
same,AUC(0-t),[2]; [5],26053.96 ng·h/mL and 23914.34 ng·h/mL
same,AUC(0-∞),[2]; [5],26994.24 ng·h/mL and 26699.24 ng·h/mL
same,Cmax,[2]; [5],5947.01 ng/mL and 4972.85 ng/mL
same,MRT(0-t),[2]; [5],2.67 h
same,MRT(0-∞),[2]; [5],2.93 h and 3.85 h
same,Tmax,[2]; [5],1.00 h
same,t1/2,[2]; [5],1.54 h and 2.38 h
same,Cmax,[2]; [6],4540 ng/mL
same,Tmax,[2]; [7],0.08 h
same,Vd,[2]; [8],0.5 L/kg
same,clearance,[2]; [9],2.43 mL/min/kg
same,AUC(0-t),[2]; [10],13400 ng·h/mL
same,Cmax,[2]; [11],5460 ng/mL
same,MRT last,[2]; [9],2.42 h
same,Tmax,[2]; [12],0.083 h
same,Vd,[2]; [9],0.54 L/kg
same,half-life,[2]; [13],2.86 h
same,AUC(0-t),"[2]; male, ICR, mouse, plasma, iv, 2 mg/kg, ICR mice, IV 2 mg/kg, mean of 3 animals, second AUC column (c5) of Table 26, read-out: AUC(0-t)",14900 ng·h/mL
same,MRT last,"[2]; male, ICR, mouse, plasma, iv, 2 mg/kg, ICR mice, IV 2 mg/kg, mean of 3 animals, second MRT column (c7) of Table 26",3.36 h
same,AUC(0-inf),[2]; [14],24700 ng·h/mL
same,AUC(0-t),[2]; [15],22600 ng·h/mL
same,Cmax,[2]; [16],4250 ng/mL
same,MRT last,[2]; [14],2.97 h
same,MRT inf,[2]; [14],3.69 h
same,Tmax,[2]; [17],2 h
same,half-life,[2]; [18],2.19 h
same,AUC(0-inf),[2]; [19],26100 ng·h/mL
same,AUC(0-t),[2]; [20],24200 ng·h/mL
same,Cmax,[2]; [21],5060 ng/mL
same,MRT last,[2]; [19],2.87 h
same,MRT inf,[2]; [19],3.49 h
same,Tmax,[2]; [22],1.67 h
same,half-life,[2]; [23],2.04 h
same,AUC(0-t),[2]; [24],24200 ng·h/mL
same,half-life,"[2]; male, ICR, mouse, plasma, po, 5 mg/kg, oral intragastric administration 5 mg/kg, read-out: half-life (converted)",2.04 h
same,IC50,[3],81.5 nM
"COc1nc(C2CC2)ncc1-c1nc2c(n1C(C)C)[C@@]1(C(=O)Nc3cc(Cl)ccc31)N(c1cc(Cl)cnc1C)C2=O [Example S-159, (S)-6-chloro-5′-(5-chloro-2-methylpyridin-3-yl)-2′-(2-cyclopropyl-4-methoxypyrimidin-5-yl)-3′-isopropyl-3′H-spiro[dihydroindole-3,4′-pyrrolo[3,4-d]imidazole]-2,6′(5′H)-dione]",IC50,[1],2.8 nM
same,AUC(0-t),[2]; [4],4456.51 ng·h/mL and 4501.92 ng·h/mL
same,Cmax,[2]; [4],2591.90 ng/mL and 2457.53 ng/mL
same,MRT(0-t),[2]; [4],1.45 h and 1.52 h
same,MRT(0-∞),[2]; [4],2.00 h and 2.19 h
same,Vz,[2]; [4],1.05 L/kg
same,t1/2,[2]; [4],1.75 h
same,F*,[2]; ICR mice,52.53%
same,AUC(0-t),[2]; [5],5902.77 ng·h/mL and 6839.45 ng·h/mL
same,AUC(0-∞),[2]; [5],6003.28 ng·h/mL and 7052.50 ng·h/mL
same,Cmax,[2]; [5],1853.01 ng/mL and 1794.96 ng/mL
same,MRT(0-t),[2]; [5],2.27 h and 2.45 h
same,MRT(0-∞),[2]; [5],2.40 h and 2.68 h
same,t1/2,[2]; [5],1.28 h and 1.47 h
same,AUC(0-inf),[2]; [8],3720 ng·h/mL
same,clearance,[2]; [8],17.9 mL/min/kg
same,AUC(0-t),"[2]; male, ICR, mouse, plasma, iv, 2 mg/kg, ICR mice, IV 2 mg/kg, individual animals 301-303, read-out: AUC(0-t)",3600 ng·h/mL
same,Cmax,[2]; [6],2540 ng/mL
same,MRT last,[2]; [8],1.23 h
same,MRT inf,[2]; [8],1.45 h
same,Tmax,[2]; [7],0.08 h
same,Vd,[2]; [8],0.95 L/kg
same,half-life,"[2]; male, ICR, mouse, plasma, iv, 2 mg/kg, ICR mice, IV 2 mg/kg, individual animals 301-303, read-out: t1/2 (converted)",1.22 h
same,AUC(0-inf),[2]; [9],4500 ng·h/mL
same,clearance,[2]; [9],15.1 mL/min/kg
same,AUC(0-t),[2]; [10],4180 ng·h/mL
same,Cmax,[2]; [11],2530 ng/mL
same,MRT last,[2]; [9],1.4 h
same,MRT inf,[2]; [9],1.88 h
same,Tmax,[2]; [12],0.083 h
same,Vd,[2]; [9],1.02 L/kg
same,half-life,[2]; [13],1.61 h
same,AUC(0-inf),[2]; [14],3770 ng·h/mL
same,AUC(0-t),[2]; [15],3740 ng·h/mL
same,Cmax,[2]; [16],1440 ng/mL
same,MRT last,[2]; [14],1.9 h
same,MRT inf,[2]; [14],1.95 h
same,Tmax,[2]; [17],1 h
same,half-life,[2]; [18],1.03 h
same,AUC(0-inf),[2]; [19],5610 ng·h/mL
same,AUC(0-t),[2]; [20],5500 ng·h/mL
same,Cmax,[2]; [21],1700 ng/mL
same,MRT last,[2]; [19],2.21 h
same,MRT inf,[2]; [19],2.34 h
same,Tmax,[2]; [22],1 h
same,half-life,[2]; [23],1.26 h
same,AUC(0-t),[2]; [24],5500 ng·h/mL
same,IC50,[3],34.2 nM
